Converted amounts (≈) assume the structure as drawn.
How the values were obtained:
[1] = test system: Mycolicibacterium smegmatis; test: Antibacterial activity against Mycobacterium smegmatis mc2 155 assessed as bacterial growth inhibition; type: functional
Streptococcus pneumoniae [2] = test: Antibacterial activity against Streptococcus pneumoniae DSM-20566 assessed as bacterial growth inhibition; type: functional
[3] = Cytotoxicity against human HepG2 cells assessed as inhibition of cell growth; type: toxicity, cell-based
Staphylococcus aureus [4] = test: Antibacterial activity against methicillin-resistant Staphylococcus aureus N315 assessed as bacterial growth inhibition; type: functional
Staphylococcus aureus [5] = test: Antibacterial activity against methicillin-sensitive Staphylococcus aureus Newman assessed as bacterial growth inhibition; type: functional
Streptococcus pneumoniae [6] = test: Antibacterial activity against penicillin-resistant Streptococcus pneumoniae DSM-11865 assessed as bacterial growth inhibition; type: functional
[7] = Selectivity index, ratio of IC50 for cytotoxicity against human HepG2 cells to MIC for antibacterial activity against Enterococcus faecalis DSM-20478; type: toxicity, cell-based
Enterococcus faecalis = test: Antibacterial activity against Enterococcus faecalis DSM-20478 assessed as bacterial growth inhibition; type: functional
[8] = Selectivity index, ratio of IC50 for cytotoxicity against human HepG2 cells to MIC for antibacterial activity against Streptococcus pneumoniae DSM-20566; type: toxicity, cell-based
[9] = Selectivity index, ratio of IC50 for cytotoxicity against human HepG2 cells to MIC for antibacterial activity against Enterococcus faecium DSM-20477; type: toxicity, cell-based
[10] = Selectivity index, ratio of IC50 for cytotoxicity against human HepG2 cells to MIC for antibacterial activity against methicillin-sensitive Staphylococcus aureus Newman; type: toxicity, cell-based
Escherichia coli [11] = test: Antibacterial activity against wild type Escherichia coli DSM-11116 assessed as bacterial growth inhibition; type: functional
Staphylococcus aureus [12] = test: Antibacterial activity against methicillin-resistant and vancomycin-intermediate Staphylococcus aureus Mu50 assessed as bacterial growth inhibition; type: functional
Escherichia coli [13] = test: Antibacterial activity against Escherichia coli K12 harbouring TolC-deficient mutant assessed as bacterial growth inhibition; type: functional
Enterococcus faecium = test: Antibacterial activity against Enterococcus faecium DSM-20477 assessed as bacterial growth inhibition; type: functional
[14] = test system: Mycolicibacterium smegmatis; test: Antibacterial activity against Mycobacterium smegmatis assessed as bacterial growth inhibition; type: functional
Escherichia coli [15] = test: Antibacterial activity against Escherichia coli harbouring TolC-deficient mutant assessed as bacterial growth inhibition; type: functional

SMILES: CCCCNc1nc(SCCCC)nc2ccc(-c3cccc(O)c3)cc12
- MIC [1]: 16 µg/mL (≈ 41.9 µM)
- MIC (Streptococcus pneumoniae [2]): 1 µg/mL (≈ 2.62 µM)
- IC50 [3]: 15.3 µg/mL (≈ 40.1 µM)
- MIC (Staphylococcus aureus [4]): > 128 µg/mL
- MIC (Staphylococcus aureus [5]): 2 µg/mL (≈ 5.24 µM)
- MIC (Streptococcus pneumoniae [6]): 16 µg/mL (≈ 41.9 µM)
- selectivity ratio [7]: 3
- MIC (Enterococcus faecalis): 2 µg/mL (≈ 5.24 µM)
- selectivity ratio [8]: 3
- selectivity ratio [9]: 3
- selectivity ratio [10]: 3
- MIC (Escherichia coli [11]): > 128 µg/mL
- MIC (Staphylococcus aureus [12]): > 128 µg/mL
- MIC (Escherichia coli [13]): > 128 µg/mL
- MIC (Enterococcus faecium): 4 µg/mL (≈ 10.5 µM)

SMILES: CCCCNc1nc(SCCCC)nc2ccccc12
- MIC [1]: 8 µg/mL (≈ 27.6 µM)
- MIC (Streptococcus pneumoniae [2]): 4 µg/mL (≈ 13.8 µM)
- MIC (Staphylococcus aureus [4]): 8 µg/mL (≈ 27.6 µM)
- MIC (Staphylococcus aureus [5]): 8 µg/mL (≈ 27.6 µM)
- MIC (Streptococcus pneumoniae [6]): 3 µg/mL (≈ 10.4 µM)
- MIC (Enterococcus faecalis): 4 µg/mL (≈ 13.8 µM)
- MIC [14]: 2 µg/mL (≈ 6.91 µM)
- MIC (Escherichia coli [11]): > 128 µg/mL
- MIC (Staphylococcus aureus [12]): 4 µg/mL (≈ 13.8 µM)
- MIC (Escherichia coli [15]): 2 µg/mL (≈ 6.91 µM)
- MIC (Escherichia coli [13]): 2 µg/mL (≈ 6.91 µM)
- MIC (Enterococcus faecium): 4 µg/mL (≈ 13.8 µM)

— ChEMBL document CHEMBL5131432, “Novel 2,4-disubstituted quinazoline analogs as antibacterial agents with improved cytotoxicity profile: Modification of the benzenoid part” (Bioorg Med Chem Lett, 2022)
